Experimental data published in the supplement of paper PMC10307832.

Assays:
Experiment in all cases: relative viability (nuclei count vs DMSO), 5 days (fraction); higher = more cells survive
[1] = compound: CC(C)C[C@H](NC(=O)[C@H](CCc1ccccc1)NC(=O)CN1CCOCC1)C(=O)N[C@@H](Cc1ccccc1)C(=O)N[C@@H](CC(C)C)C(=O)[C@@]1(C)CO1 [Carfilzomib] + Cc1nc(Nc2ncc(C(=O)Nc3c(C)cccc3Cl)s2)cc(N2CCN(CCO)CC2)n1 [Dasatinib] (partner 0.075 µM)
Summary of the method: (§1)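 After 5 days of treatment, lung cancer cells in 1536-well plates were fixed and stained in a single step (final 0.05% Triton X-100, 1% formaldehyde, 1 ug/ml Hoechst) and their nuclei counted on 4× images. Treatment had been applied by pin tool the day after seeding as one drug alone or as a fixed anchor-drug dose with five library-drug doses (not always all listed) in √10 steps. Relative viability is the nuclei count of treated wells divided by that of vehicle wells, and values are medians of duplicate plates.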

[2] = compound: C[C@@H](Oc1cc(-c2cnn(C3CCNCC3)c2)cnc1N)c1c(Cl)ccc(F)c1Cl [Crizotinib] + COc1cccc2cc(-c3nc([C@H]4CC[C@H](C(=O)O)CC4)n4ncnc(N)c34)[nH]c12 [OSI-027] (partner 0.5 µM)
Summary of the method: as §1

[3] = compound: C[C@@H](Oc1cc(-c2cnn(C3CCNCC3)c2)cnc1N)c1c(Cl)ccc(F)c1Cl [Crizotinib] + CS(=O)(=O)N1CCN(Cc2cc3nc(-c4cccc5[nH]ncc45)nc(N4CCOCC4)c3s2)CC1 [Pictilisib] (partner 1 µM)
Summary of the method: as §1

[4] = compound: C[C@@H](Oc1cc(-c2cnn(C3CCNCC3)c2)cnc1N)c1c(Cl)ccc(F)c1Cl [Crizotinib] + O=C(CCCCCCC(=O)Nc1ccccc1)NO [Vorinostat] (partner 1 µM)
Summary of the method: as §1

Cell Line | relative viability ([1]; first compound 0.001 µM) | relative viability ([1]; first compound 0.003162 µM) | relative viability ([1]; first compound 0.01 µM) | relative viability ([1]; first compound 0.03162 µM) | relative viability ([1]; first compound 0.1 µM) | relative viability ([2]; first compound 0.01 µM) | relative viability ([2]; first compound 0.03162 µM) | relative viability ([2]; first compound 0.1 µM) | relative viability ([2]; first compound 0.3162 µM) | relative viability ([2]; first compound 1 µM) | relative viability ([3]; first compound 0.01 µM) | relative viability ([3]; first compound 0.03162 µM) | relative viability ([3]; first compound 0.1 µM) | relative viability ([3]; first compound 0.3162 µM) | relative viability ([3]; first compound 1 µM) | relative viability ([4]; first compound 0.01 µM) | relative viability ([4]; first compound 0.03162 µM) | relative viability ([4]; first compound 0.1 µM) | relative viability ([4]; first compound 0.3162 µM) | relative viability ([4]; first compound 1 µM)
NCI-H661 | 0.911 | 1.07 | 1.03 | 0.72 | 0.172 | 0.606 | 0.74 | 0.771 | 0.711 | 0.663 | 0.379 | 0.349 | 0.383 | 0.378 | 0.36 | 0.706 | 0.777 | 0.731 | 0.841 | 0.775
NCI-H727 | 0.386 | 0.333 | 0.491 | 0.216 | 0.174 |  | 0.561 | 0.774 |  | 0.551 | 0.368 | 0.389 | 0.561 | 0.285 | 0.29 | 1.16 | 1.1 | 1.3 | 1.16 | 1.37
NCI-H838 | 0.321 | 0.333 | 0.291 | 0.267 | 0.182 | 0.348 | 0.369 | 0.409 | 0.393 | 0.392 | 0.396 | 0.5 | 0.483 | 0.426 | 0.496 | 0.715 |  | 0.728 | 0.687 | 0.701
NCI-H1355 | 0.628 | 0.785 | 0.686 | 0.382 | 0.264 | 0.358 | 0.44 | 0.394 | 0.369 | 0.361 | 0.45 | 0.52 | 0.413 | 0.297 | 0.434 | 0.638 | 0.629 | 0.625 | 0.564 | 0.613
NCI-H1395 | 0.411 | 0.426 | 0.417 | 0.36 | 0.314 | 0.601 | 0.631 | 0.623 | 0.496 | 0.563 | 0.621 | 0.557 | 0.73 | 0.906 | 0.542 | 0.602 | 0.827 | 0.794 | 0.53 | 0.554
NCI-H1437 | 0.28 | 0.483 | 0.419 | 0.257 | 0.133 | 0.758 | 0.901 | 0.824 |  |  | 0.311 | 0.461 | 0.389 | 0.375 | 0.439 | 0.832 | 0.832 | 0.857 | 0.867 | 0.849
NCI-H1650 | 0.282 | 0.304 | 0.207 | 0.165 | 0.172 | 0.554 | 0.624 | 0.585 | 0.54 | 0.569 | 0.516 | 0.584 | 0.573 | 0.535 | 0.559 | 0.471 | 0.594 | 0.527 | 0.68 | 0.619
NCI-H1651 | 0.361 | 0.295 | 0.266 | 0.104 | 0.0779 | 0.546 | 0.852 | 0.727 | 0.73 | 0.8 | 0.437 | 0.65 | 0.514 | 0.559 | 0.572 | 0.572 | 0.424 | 0.582 | 0.398 | 0.61
